Experiments:
[1] = Clearance in Sprague-Dawley rat at 0.5 mg/kg, iv; format: ADME, organism-based; set-up: dose 0.5 mg/kg, route intravenous; details: in vivo
[2] = Volume of distribution in steady state in Sprague-Dawley rat at 0.5 mg/kg, iv; format: ADME, organism-based; set-up: dose 0.5 mg/kg, route intravenous; details: in vivo, read-out: Vdss
[3] = Bioavailability in Sprague-Dawley rat at 2 mg/kg, po; format: ADME, organism-based; details: in vivo
[4] = Clearance in mouse liver microsomes; format: ADME, Microsome
[5] = Half life in Sprague-Dawley rat at 0.5 mg/kg, iv; format: ADME, organism-based; set-up: dose 0.5 mg/kg, route intravenous; details: in vivo
[6] = Clearance in rat liver microsomes; format: ADME, Microsome
[7] = target: T1, Hepatocyte growth factor receptor (Homo sapiens, UniProt P08581)
Description: Inhibition of HGF-mediated c-Met phosphorylation in serum-starved human PC2 cells

[8] = AUC (0 to infinity) in Sprague-Dawley rat at 2 mg/kg, po; format: ADME, organism-based; set-up: time infinity, dose 2 mg/kg, route oral; details: plasma
[9] = target: Mast/stem cell growth factor receptor Kit (Homo sapiens) (UniProt P10721); assay: Inhibition of cKit
[10] = Clearance in Sprague-Dawley rat at 0.25 mg/kg, iv; format: ADME, organism-based; set-up: dose 0.25 mg/kg, route intravenous; details: in vivo
[11] = target: Tyrosine-protein kinase ABL1 (Homo sapiens) (UniProt P00519); assay: Inhibition of Abl
[12] = target: RAC-alpha serine/threonine-protein kinase (Homo sapiens) (UniProt P31749); assay: Inhibition of PKBalpha
[13] = target: Ribosomal protein S6 kinase alpha-5 (Homo sapiens) (UniProt O75582); assay: Inhibition of Msk1
[14] = target: Tyrosine-protein kinase Lck (Homo sapiens) (UniProt P06239); assay: Inhibition of Lck
[15] = target: Vascular endothelial growth factor receptor 2 (Homo sapiens) (UniProt P35968); assay: Inhibition of KDR
[16] = target: Aurora kinase A (Homo sapiens) (UniProt O14965); assay: Inhibition of Aur2
[17] = target: T1, Hepatocyte growth factor receptor; assay: Inhibition of c-Met by HTRF assay
Mus musculus = assay: Inhibition of HGF-mediated c-Met phosphorylation in orally dosed mouse liver; format: functional; details: po
[18] = Half life in Sprague-Dawley rat at 0.25 mg/kg, iv; format: ADME, organism-based; set-up: dose 0.25 mg/kg, route intravenous; details: in vivo
[19] = target: Cyclin-dependent kinase 5 (Homo sapiens) (UniProt Q00535); assay: Inhibition of CDK5
[20] = Inhibition of PKAalpha
[21] = Volume of distribution in steady state in Sprague-Dawley rat at 0.25 mg/kg, iv; format: ADME, organism-based; set-up: dose 0.25 mg/kg, route intravenous; details: in vivo, read-out: Vdss
[22] = target: Angiopoietin-1 receptor (Homo sapiens) (UniProt Q02763); assay: Inhibition of Tie2
[23] = Inhibition of p38
[24] = target: Tyrosine-protein kinase BTK (Homo sapiens) (UniProt Q06187); assay: Inhibition of Btk
[25] = target: Mitogen-activated protein kinase 3 (Homo sapiens) (UniProt P27361); assay: Inhibition of Erk1
[26] = target: Tyrosine-protein kinase JAK2 (Homo sapiens) (UniProt O60674); assay: Inhibition of Jak2
[27] = target: Mitogen-activated protein kinase 9 (Homo sapiens) (UniProt P45984); assay: Inhibition of JNK2
[28] = target: Insulin-like growth factor 1 receptor (Homo sapiens) (UniProt P08069); assay: Inhibition of IGF1R
[29] = target: Proto-oncogene tyrosine-protein kinase Src (Homo sapiens) (UniProt P12931); assay: Inhibition of Src
[30] = Drug level in orally dosed mouse plasma after 6 hrs; format: ADME, organism-based; details: po

## COc1ccc2c(OCc3nnc4ccc(-c5ccccc5)nn34)ccnc2c1 [AMG-208]
[1]
  clearance: 6.17 mL/min/kg
[2]
  Vd: 0.38 L/kg
[3]
  bioavailability: 43%
[4]
  microsomal CLint: 122 µL/min/mg
[5]
  half-life: 1 h
[6]
  microsomal CLint: 131 µL/min/mg
[7]
  IC50: 46 nM
[8]
  AUC(0-inf): 2520 ng·h/mL

## COc1ccc2c(OCc3nnc4ccc(-c5cc(F)c(F)c(F)c5)nn34)ccnc2c1
[9]
  Activity: > 10 µM
[10]
  clearance: 0.967 mL/min/kg
[11]
  Activity: > 10 µM
[12]
  Activity: > 10 µM
[13]
  Activity: > 10 µM
[14]
  Activity: > 10 µM
[15]
  Activity: > 10 µM
[3]
  bioavailability: 22%
[16]
  Activity: > 10 µM
[17]
  IC50: 4 nM
Mus musculus
  ED90: 30 mg/kg
[4]
  microsomal CLint: 156 µL/min/mg
[18]
  half-life: 3.5 h
[19]
  Activity: > 10 µM
[20]
  Activity: > 10 µM
[21]
  Vd: 0.152 L/kg
[22]
  Activity: > 10 µM
[23]
  Activity: > 10 µM
[24]
  Activity: > 10 µM
[6]
  microsomal CLint: 190 µL/min/mg
[25]
  Activity: > 10 µM
[26]
  Activity: > 10 µM
[7]
  IC50: 7 nM
[8]
  AUC(0-inf): 7840 ng·h/mL
[27]
  Activity: > 10 µM
[28]
  Activity: > 10 µM
[29]
  Activity: > 10 µM
[30]
  concentration at 6 h: 6.7 µM

## COc1ccc2c(OCc3nnc4ccc(-c5cc(C)ns5)nn34)ccnc2c1
[10]
  clearance: 4 mL/min/kg
[3]
  bioavailability: 59%
[4]
  microsomal CLint: 173 µL/min/mg
[18]
  half-life: 2.58 h
[21]
  Vd: 0.35 L/kg
[6]
  microsomal CLint: 420 µL/min/mg
[8]
  AUC(0-inf): 5100 ng·h/mL

Source: ChEMBL document CHEMBL1150286, “Discovery and optimization of triazolopyridazines as potent and selective inhibitors of the c-Met kinase” (J Med Chem, 2008)
